Publication PMC12143348, “Rapid and reversible fluorescent probe enables repeated snapshot imaging of AMPA receptors during synaptic plasticity” (Science Advances, 2025)
Entries after “also recorded” stand apart in the source; their conditions may differ.

Columns and labels:
GluA3 (Y454A/R461G) = target: T1, GluA3 (Y454A/R461G) (Mus musculus, UniProt Q9Z2W9, R461G/Y454A); assay: Concentration-dependent binding of PFQX1(AF488), confocal live imaging of HEK293T cells expressing GluA3; conditions: n = 3, read-out: Kd / Affinity of PFQX1(AF488) to GluA3
T1 construct: expressed in transfected cells; host or cells: HEK293T
Protocol: (§1) HEK293T cells were cotransfected with plasmids for AMPAR [5′UTR-GluA1^flip(R)-3′UTR, GluA2^flip(Q)-3′UTR, GluA3^flip(Q) (Y454A/R461G), and GluA4^flip(Q)], kainate receptor [GluK2(Q)], auxiliary subunits, or the control vector and transfection marker (EFGP-F or mCherry-F). Fluorophore-ligand conjugates were diluted in Hepes-buffered saline (HBS) buffer [20 mM Hepes (pH 7.4), 107 mM NaCl, 6 mM KCl, 1.2 mM MgSO4, 2 mM CaCl2, and 11.5 mM glucose] and added to the cells. Confocal live imaging was performed with LSM900 (Carl Zeiss) equipped with a 63×, numerical aperture (NA) = 1.4 oil-immersion objective. Fluorescence images were acquired by excitation at 405, 488, 561, or 640 nm derived from diode lasers.
(§2) For evaluating the concentration dependency of fluorophore-ligand conjugates, 0.1 nM probe in HBS was added to the dish. Then, probes in HBS were added stepwise to the dish to a final concentration of 0.3, 1, 3, 10, 30, 100, 300, 1000, and 3000 nM. Cell surface fluorescence intensity was quantified from the line scans of transfection marker positive cells and calculated with subtraction of background by ZEN blue software (Carl Zeiss). The membrane intensity was fitted with KaleidaGraph (Synergy software) to calculate the equilibrium constant value using the following equation: a + (b − a)/(1 + (x/c)^d). The equilibrium constant is regarded as the Kd in this study.

GluA2flip(R) = target: T2, GluA2flip(R) (Mus musculus, UniProt P23819, DEL765-802/Q607R); assay: Concentration-dependent binding of PFQX1(AF488) to GluA2flip(R) expressed alone in HEK293T cells; conditions: n = 3–4, read-out: Kd / Affinity of PFQX1(AF488) to GluA2flip(R) expressed alone (–)
T2 construct: expressed in transfected cells; host or cells: HEK293T
Protocol: as §1
as §2, with “The membrane intensity was fitted with KaleidaGraph (Synergy software) to calculate the equilibrium constant value using the following equation: a + (b − a)/(1 + (x/c)^d). The equilibrium constant is regarded as the Kd in this study.” left out
(A) Concentration-dependent binding of PFQX1(AF488) to GluA2 flip(R) expressed with GSG1L or TARP γ7. […] (B) The surface intensity of PFQX1(AF488) was quantified. […]

AMPARs = assay: Kinetics and reversibility of PFQX1(AF488) binding in cultured hippocampal neurons; parameters: species or system mouse; conditions: 100 nM probe
Protocol: A cloning ring (16 mm φ) was placed on the dish to accelerate the diffusion of the probe solution. After the dish was set on the stage, the cells were treated with 100 nM PFQX1(AF488) and imaged at specified time points by confocal microscopy.
For evaluating reversibility, stained cells were observed by confocal microscopy as the first image. Then, the cells were washed three times with Hepes-based ACSF and scanned as the wash image. After removal of the buffer, 100 nM PFQX1(AF488) was re-treated, and the cells were scanned as the second image. To quantify the fluorescence intensity of spines, the average signal intensity of ROIs set on spines was calculated by ZEN blue software after subtracting background fluorescence.

GluK2(Q) = target: T3, GluK2(Q) (Rattus norvegicus, UniProt P42260); assay: Confocal live imaging of HEK293T cells expressing GluK2(Q) treated with PFQX1(AF488); format: binding; conditions: even at high concentration (300 nM)
T3 construct: expressed in transfected cells; host or cells: HEK293T
Protocol: as §1
Anti-HA mCherry-F Merge1.0
Fig. S8. Sub-micromolar concentrations of PFQX1(AF488) fail to visualize cell surface kainate receptors in HEK293T cells. (A) HA-tag staining of GluK2(Q).
GluK2(Q) expressing cells were treated with anti-HA antibody (Alexa Fluor 647 conjugate) for 15 min. Scale bar, 10 µm. (B) Fluorescence Ca2+ assay to analyze the inhibition of 100 µM kainic acid-induced response by PFQX-amine. HEK293T cells were transfected with GluK2(Q). The intensity was normalized to that at 0.1 µM PFQX-amine (n = 3). (C) Representative results of confocal live cell imaging of HEK293T cells expressing GluK2(Q) are shown. mCherry-F was used as a transfection marker. […]

[1] = pH-dependency of fluorescent intensity in GTA buffer (spectrofluorophotometer); format: physicochemical; conditions: 2 µM probe in GTA buffer pH 4–10, normalized to pH 10
Protocol: Evaluation of the affinity of PFQX-amine
HEK293T cells were co-transfected with GluA2 flip(Q)-3’UTR and mCherry-F as a transfection marker. After washing the cells with HBS, 30 nM PFQX1(AF488) was added to the dish. Then, PFQX-amine in HBS was step-wisely added to the dish to a final […]
performed with confocal microscopy. Cell surface fluorescent intensity was quantified from the line scans of transfection marker positive cells calculated by ZEN blue software and calculated with subtraction of background. The membrane intensity was fitted with KaleidaGraph to calculate the IC50 value using the following equation:a + (b-a)/(1+(x/c)^d). The Ki value was calculated using the Cheng-Prusoff equation: Ki = IC50/(1+[S]/K d). In the equation, [S] and Kd were the concentration and dissociation constant of PFQX1(AF488), respectively. pH-dependency of fluorescent intensity
Fluorescent intensity was determined by spectrofluorophotometer RF-6000 (Shimadzu). […]
glutaric acid, 0.1 M Tris, 0.1 M 2-amino-2-methyl-1,3-propanediol) to a final concentration of 2 µM. pH value of GTA buffer was adjusted to 4, 5, 6, 7, 8, 9, and 10.
Fluorescent intensity was normalized by the intensity at pH 10.
For the evaluation in cells, HEK293T cells expressing GluA2 or primary cultured hippocampal neurons were used. […]

T2 sequence (P23819 with tags, fused parts or gaps isoform P23819-4 Q607R/DEL765-802): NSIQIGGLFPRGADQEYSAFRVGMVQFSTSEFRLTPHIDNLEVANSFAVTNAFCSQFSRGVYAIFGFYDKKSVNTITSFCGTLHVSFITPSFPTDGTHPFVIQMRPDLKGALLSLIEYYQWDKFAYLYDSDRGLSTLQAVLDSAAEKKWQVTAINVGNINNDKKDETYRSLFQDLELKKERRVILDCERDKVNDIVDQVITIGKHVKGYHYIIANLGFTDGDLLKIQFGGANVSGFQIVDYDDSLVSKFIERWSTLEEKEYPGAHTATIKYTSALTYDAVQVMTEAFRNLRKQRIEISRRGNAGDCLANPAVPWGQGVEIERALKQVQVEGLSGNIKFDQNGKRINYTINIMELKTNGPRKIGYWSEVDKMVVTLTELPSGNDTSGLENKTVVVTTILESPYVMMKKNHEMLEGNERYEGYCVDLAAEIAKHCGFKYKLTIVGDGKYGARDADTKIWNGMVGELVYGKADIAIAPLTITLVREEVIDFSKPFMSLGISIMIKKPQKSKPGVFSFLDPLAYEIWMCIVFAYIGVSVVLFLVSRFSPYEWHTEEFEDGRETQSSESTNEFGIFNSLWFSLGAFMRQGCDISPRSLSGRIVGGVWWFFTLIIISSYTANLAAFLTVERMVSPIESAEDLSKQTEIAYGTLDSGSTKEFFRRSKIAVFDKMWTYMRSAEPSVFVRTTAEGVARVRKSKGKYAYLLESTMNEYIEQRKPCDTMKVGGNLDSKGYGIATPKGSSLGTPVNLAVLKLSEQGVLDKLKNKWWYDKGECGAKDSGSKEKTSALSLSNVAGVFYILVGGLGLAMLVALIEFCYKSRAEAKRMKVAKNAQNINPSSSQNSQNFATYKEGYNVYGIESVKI
T3 sequence (P42260 32-908): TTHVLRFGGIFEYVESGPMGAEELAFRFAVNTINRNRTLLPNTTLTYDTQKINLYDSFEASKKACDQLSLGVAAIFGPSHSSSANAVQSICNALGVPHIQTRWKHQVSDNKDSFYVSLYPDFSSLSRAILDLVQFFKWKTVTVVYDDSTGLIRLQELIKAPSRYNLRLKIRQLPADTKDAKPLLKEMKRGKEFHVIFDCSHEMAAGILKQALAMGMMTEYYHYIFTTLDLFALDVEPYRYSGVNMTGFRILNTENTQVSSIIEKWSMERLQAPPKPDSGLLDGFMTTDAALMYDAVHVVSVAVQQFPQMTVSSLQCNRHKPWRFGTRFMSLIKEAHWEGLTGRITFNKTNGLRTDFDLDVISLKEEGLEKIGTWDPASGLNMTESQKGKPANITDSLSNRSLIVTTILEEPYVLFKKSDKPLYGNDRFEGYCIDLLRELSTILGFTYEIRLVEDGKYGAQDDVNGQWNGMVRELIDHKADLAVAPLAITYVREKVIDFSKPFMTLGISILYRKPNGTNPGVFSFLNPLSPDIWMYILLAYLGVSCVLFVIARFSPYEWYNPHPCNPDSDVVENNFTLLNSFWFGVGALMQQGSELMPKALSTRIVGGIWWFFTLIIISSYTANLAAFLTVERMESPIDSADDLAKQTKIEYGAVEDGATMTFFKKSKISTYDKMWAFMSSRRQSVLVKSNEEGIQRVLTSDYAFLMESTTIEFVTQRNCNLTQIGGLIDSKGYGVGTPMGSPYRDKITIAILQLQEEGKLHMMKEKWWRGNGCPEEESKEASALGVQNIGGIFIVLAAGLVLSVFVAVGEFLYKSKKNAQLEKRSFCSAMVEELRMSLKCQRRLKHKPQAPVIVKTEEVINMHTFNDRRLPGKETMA
T1 sequence (Q9Z2W9 23-888 Y454A/R461G): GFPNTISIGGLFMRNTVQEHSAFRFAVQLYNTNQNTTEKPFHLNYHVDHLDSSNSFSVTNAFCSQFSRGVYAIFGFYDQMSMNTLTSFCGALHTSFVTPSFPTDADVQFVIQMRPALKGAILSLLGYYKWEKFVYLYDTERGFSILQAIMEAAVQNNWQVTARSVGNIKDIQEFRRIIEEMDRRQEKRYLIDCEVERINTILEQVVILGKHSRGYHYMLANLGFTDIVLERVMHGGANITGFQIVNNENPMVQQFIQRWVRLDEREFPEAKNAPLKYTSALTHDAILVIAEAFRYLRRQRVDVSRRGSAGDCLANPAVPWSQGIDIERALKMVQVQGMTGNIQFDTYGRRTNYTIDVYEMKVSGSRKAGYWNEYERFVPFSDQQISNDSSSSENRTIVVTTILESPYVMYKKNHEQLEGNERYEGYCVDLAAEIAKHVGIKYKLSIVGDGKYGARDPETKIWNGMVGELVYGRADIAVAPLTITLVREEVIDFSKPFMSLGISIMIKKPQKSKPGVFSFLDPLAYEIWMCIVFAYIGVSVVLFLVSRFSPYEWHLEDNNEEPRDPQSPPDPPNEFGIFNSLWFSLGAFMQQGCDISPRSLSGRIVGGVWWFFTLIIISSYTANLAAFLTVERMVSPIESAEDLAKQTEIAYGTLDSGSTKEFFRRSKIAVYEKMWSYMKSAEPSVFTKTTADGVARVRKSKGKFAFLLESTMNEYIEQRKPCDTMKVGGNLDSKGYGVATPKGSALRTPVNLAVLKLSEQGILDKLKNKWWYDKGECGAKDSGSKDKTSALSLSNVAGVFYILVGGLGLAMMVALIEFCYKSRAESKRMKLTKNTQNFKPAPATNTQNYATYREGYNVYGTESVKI

N=c1ccc2c(-c3ccc(C(=O)NCc4ccn(-c5cc6c(cc5C(F)(F)F)[nH]c(=O)c(=O)n6CC(=O)O)c4)cc3C(=O)O)c3ccc(N)c(S(=O)(=O)O)c3oc-2c1S(=O)(=O)O [PFQX1(AF488)]
Kd (GluA3 (Y454A/R461G)): 30.6 ± 7 nM
Kd (GluA2flip(R)): 32.3 ± 4.7 nM
reversibility of binding (medium exchange) (AMPARs): easily removed by medium exchange
time to saturation of fluorescent signals after probe addition (AMPARs): 10 s
visualization of GluK2 (GluK2(Q)): failed to visualize GluK2
pH dependency of the fluorescence intensity [1]: relatively unaffected at pH 5 to 10; also recorded: pH-independent manner in the pH 5 to 10 range
